Test results as given in ChEMBL document CHEMBL4334471, “Discovery of 1,8-disubstituted-[1,2,3]triazolo[4,5-c]quinoline derivatives as a new class of Hippo signaling pathway inhibitors” (Bioorg Med Chem Lett, 2019).

Columns and labels:
[1] = target: Tyrosine-protein kinase JAK2 (Homo sapiens) (UniProt O60674); assay: Inhibition of human JAK2 (808 to end residues) assessed as residual activity at 10 uM using KTFCGTPEYLAPEVRREPRILSEEEQEMFRDFDYIADWC as substrate after 40 mins by [gamma-33ATP] radiometric assay relative to control
[2] = target: Activin receptor type-2A (Homo sapiens) (UniProt P27037); assay: Inhibition of human ACTR2 (162 to end residues) assessed as residual activity at 10 uM using casein as substrate incubated for 120 mins in presence of [gamma-33ATP] by scintillation counting based radiometry assay relative to control
[3] = target: Tyrosine-protein kinase Lyn (Mus musculus) (UniProt P25911); assay: Inhibition of recombinant full length mouse Lyn assessed as residual activity at 10 uM using poly(Glu, Tyr) 4:1 as substrate after 40 mins in presence of [gamma-33ATP] by scintillation counting based radiometry assay relative to control
[4] = tested on: Tyrosine-protein kinase receptor UFO (Homo sapiens), P30530 [Q764R]; assay: Inhibition of recombinant human Axl Q764R mutant (473 to end residues) assessed as residual activity at 10 uM using KKSRGDYMTMQIG as substrate incubated for 40 mins in presence of [gamma-33ATP] by scintillation counting based radiometry assay relative to control
[5] = tested on: Phosphorylase b kinase gamma catalytic chain, liver/testis isoform (Homo sapiens), P15735 [F290L]; assay: Inhibition of recombinant human PhKgamma2 F290L mutant (1 to 301 residues) assessed as residual activity at 10 uM using KKLNRTLSFAEPG as substrate incubated for 40 mins in presence of [gamma33P]ATP by scintillation counting based radiometry assay relative to control
[6] = target: Cytoplasmic tyrosine-protein kinase BMX (Homo sapiens) (UniProt P51813); assay: Inhibition of recombinant full length human BMX assessed as residual activity at 10 uM using poly(Glu, Tyr) 4:1 as substrate incubated for 40 mins in presence of [gamma-33ATP] by scintillation counting based radiometry assay relative to control
[7] = target: SRSF protein kinase 1 (Homo sapiens) (UniProt Q96SB4); assay: Inhibition of recombinant human SRPK1 (2 to end residues) assessed as residual activity at 10 uM using RSRSRSRSRSRSRSR as substrate incubated for 40 mins in presence of [gamma33P]ATP by scintillation counting based radiometry assay relative to control
[8] = target: cGMP-dependent protein kinase 1 (Homo sapiens) (UniProt Q13976); assay: Inhibition of recombinant full-length human PKG1alpha assessed as residual activity at 10 uM using RRRLSFAEPG as substrate incubated for 40 mins in presence of [gamma33P]ATP by scintillation counting based radiometry assay relative to control
[9] = target: Protein kinase C zeta type (Homo sapiens) (UniProt Q05513); assay: Inhibition of recombinant human PKCzeta (2 to end residues) assessed as residual activity at 10 uM using ERMRPRKRQGSVRRRV as substrate incubated for 40 mins in presence of [gamma33P]ATP by scintillation counting based radiometry assay relative to control
[10] = target: Focal adhesion kinase 1 (Homo sapiens) (UniProt Q05397); assay: Inhibition of recombinant human FAK (411 to 686 residues) assessed as residual activity at 10 uM using EEEEYEEEEEEYYIIEEEEEEYEEEEEEYYEEEEEEKKKK as substrate at 40 mins in presence of [gamma-33ATP] by scintillation counting based radiometry assay relative to control
[11] = tested on: Tyrosine-protein kinase BTK (Homo sapiens), Q06187 [R28H]; assay: Inhibition of recombinant full length human BTK R28H mutant assessed as residual activity at 10 uM using LSNLYHQGKFLQTFCGSPLYRRR substrate incubated for 40 mins in presence of [gamma-33ATP] by scintillation counting based radiometry assay relative to control
[12] = tested on: Epidermal growth factor receptor (Homo sapiens), P00533 [L858R,T790M]; assay: Inhibition of recombinant human EGFR T790M/L858R mutant (696 to end residues) assessed as residual activity at 10 uM using poly(Glu, Tyr) 4:1 as substrate at 40 mins in presence of [gamma-33ATP] by scintillation counting based radiometry assay relative to control
[13] = target: Mitogen-activated protein kinase kinase kinase 10 (Homo sapiens) (UniProt Q02779); assay: Inhibition of recombinant human MLK2 (1 to 499 residues) assessed as residual activity at 10 uM using myelin basic protein as substrate incubated for 40 mins in presence of [gamma-33ATP by scintillation counting based radiometry assay relative to control
[14] = target: Tyrosine-protein kinase Srms (Homo sapiens) (UniProt Q9H3Y6); assay: Inhibition of recombinant human SRMS assessed as residual activity at 10 uM presence of [gamma33P]ATP by scintillation counting based radiometry assay relative to control
[15] = target: Mitogen-activated protein kinase kinase kinase 20 (Homo sapiens) (UniProt Q9NYL2); assay: Inhibition of recombinant full-length human ZAK assessed as residual activity at 10 uM using MBP as substrate incubated for 40 mins in presence of [gamma33P]ATP by scintillation counting based radiometry assay relative to control
[16] = target: Activin receptor type-1B (Homo sapiens) (UniProt P36896); assay: Inhibition of human ALK4 (150 to end residues) assessed as residual activity at 10 uM using casein as substrate incubated for 40 mins in presence of [gamma-33ATP] by scintillation counting based radiometry assay relative to control
[17] = target: Ephrin type-B receptor 3 (Homo sapiens) (UniProt P54753); assay: Inhibition of recombinant human EphB3 (599 to 920 residues) assessed as residual activity at 10 uM using poly(Glu, Tyr) 4:1 as substrate at 40 mins in presence of [gamma-33ATP] by scintillation counting based radiometry assay relative to control
[18] = organism: Homo sapiens; assay: Inhibition of recombinant human MER H628Q/R794A mutant (557 to 882 residues) assessed as residual activity at 10 uM using KKLNRTLSFAEPG as substrate incubated for 40 mins in presence of [gamma-33ATP by scintillation counting based radiometry assay relative to control
[19] = target: Mitogen-activated protein kinase kinase kinase kinase 5 (Homo sapiens) (UniProt Q9Y4K4); assay: Inhibition of recombinant human MAP4K5 assessed as residual activity at 10 uM using myelin basic protein as substrate incubated for 40 mins in presence of [gamma-33ATP by scintillation counting based radiometry assay relative to control
[20] = target: Serine/threonine-protein kinase Nek1 (Homo sapiens) (UniProt Q96PY6); assay: Inhibition of recombinant human NEK1 (1 to 505 residues) assessed as residual activity at 10 uM using RLGRDKYKTLRQI as substrate measured after 40 mins in presence of [gamma33P]ATP by scintillation counting based radiometry assay relative to control
[21] = target: Protein kinase C theta type (Homo sapiens) (UniProt Q04759); assay: Inhibition of recombinant full length human PKCtheta assessed as residual activity at 10 uM using histone H1 as substrate incubated for 40 mins in presence of [gamma33P]ATP by scintillation counting based radiometry assay relative to control

Tyrosine-protein kinase BTK (Homo sapiens), Q06187 [R28H], sequence (Q06187 whole entry R28H): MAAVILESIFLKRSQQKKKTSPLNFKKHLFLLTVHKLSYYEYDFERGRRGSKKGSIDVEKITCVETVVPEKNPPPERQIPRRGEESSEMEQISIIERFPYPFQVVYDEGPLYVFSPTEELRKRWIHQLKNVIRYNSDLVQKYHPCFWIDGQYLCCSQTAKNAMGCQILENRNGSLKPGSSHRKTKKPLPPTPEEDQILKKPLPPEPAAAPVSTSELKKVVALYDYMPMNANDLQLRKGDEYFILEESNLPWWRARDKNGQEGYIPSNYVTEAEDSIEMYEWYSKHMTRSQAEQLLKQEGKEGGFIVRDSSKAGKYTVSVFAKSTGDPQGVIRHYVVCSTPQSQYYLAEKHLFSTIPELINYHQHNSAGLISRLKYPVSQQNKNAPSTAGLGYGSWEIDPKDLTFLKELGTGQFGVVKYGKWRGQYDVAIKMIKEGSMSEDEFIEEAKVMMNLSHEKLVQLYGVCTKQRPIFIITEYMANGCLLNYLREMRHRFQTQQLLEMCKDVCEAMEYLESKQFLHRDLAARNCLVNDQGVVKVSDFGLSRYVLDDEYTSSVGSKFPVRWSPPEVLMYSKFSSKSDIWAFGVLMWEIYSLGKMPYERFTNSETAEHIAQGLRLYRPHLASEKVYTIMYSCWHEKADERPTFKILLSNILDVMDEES
Activin receptor type-1B (Homo sapiens), sequence (P36896 whole entry, the tested form may be a part): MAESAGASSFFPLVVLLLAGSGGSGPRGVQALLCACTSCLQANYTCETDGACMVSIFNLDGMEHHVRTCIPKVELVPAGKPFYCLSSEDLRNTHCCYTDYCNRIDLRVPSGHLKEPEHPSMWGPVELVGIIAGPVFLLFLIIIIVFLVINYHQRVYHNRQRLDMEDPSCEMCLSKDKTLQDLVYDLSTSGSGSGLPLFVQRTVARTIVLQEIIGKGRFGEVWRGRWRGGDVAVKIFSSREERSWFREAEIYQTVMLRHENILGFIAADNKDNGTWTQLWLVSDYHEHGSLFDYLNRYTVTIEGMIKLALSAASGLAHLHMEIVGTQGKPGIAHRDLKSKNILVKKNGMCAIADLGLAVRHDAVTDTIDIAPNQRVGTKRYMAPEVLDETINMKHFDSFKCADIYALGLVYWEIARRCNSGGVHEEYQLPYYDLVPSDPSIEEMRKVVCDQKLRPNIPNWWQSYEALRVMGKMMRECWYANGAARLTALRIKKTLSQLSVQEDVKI
Mitogen-activated protein kinase kinase kinase kinase 5 (Homo sapiens), sequence (Q9Y4K4 whole entry, looked up, the tested form may be a part): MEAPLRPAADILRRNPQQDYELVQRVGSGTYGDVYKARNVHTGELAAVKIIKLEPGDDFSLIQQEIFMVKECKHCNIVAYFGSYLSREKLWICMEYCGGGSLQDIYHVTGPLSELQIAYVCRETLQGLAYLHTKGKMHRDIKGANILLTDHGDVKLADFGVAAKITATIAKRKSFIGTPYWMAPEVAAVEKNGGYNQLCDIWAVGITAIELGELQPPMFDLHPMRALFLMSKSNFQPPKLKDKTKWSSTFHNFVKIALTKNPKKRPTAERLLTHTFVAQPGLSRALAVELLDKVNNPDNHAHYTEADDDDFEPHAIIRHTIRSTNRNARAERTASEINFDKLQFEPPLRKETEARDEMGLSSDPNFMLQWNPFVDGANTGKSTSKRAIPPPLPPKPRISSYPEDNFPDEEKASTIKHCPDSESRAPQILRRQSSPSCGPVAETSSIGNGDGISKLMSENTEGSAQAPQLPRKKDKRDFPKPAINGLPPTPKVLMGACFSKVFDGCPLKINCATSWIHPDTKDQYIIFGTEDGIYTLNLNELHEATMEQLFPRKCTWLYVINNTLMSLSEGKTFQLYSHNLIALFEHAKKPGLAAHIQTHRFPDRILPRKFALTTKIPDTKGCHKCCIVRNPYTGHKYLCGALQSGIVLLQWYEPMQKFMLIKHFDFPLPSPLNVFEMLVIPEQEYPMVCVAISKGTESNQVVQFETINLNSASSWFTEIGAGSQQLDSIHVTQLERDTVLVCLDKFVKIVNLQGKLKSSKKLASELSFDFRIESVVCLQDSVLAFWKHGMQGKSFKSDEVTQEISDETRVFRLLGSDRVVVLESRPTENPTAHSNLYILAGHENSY
Tyrosine-protein kinase JAK2 (Homo sapiens), sequence (O60674 whole entry): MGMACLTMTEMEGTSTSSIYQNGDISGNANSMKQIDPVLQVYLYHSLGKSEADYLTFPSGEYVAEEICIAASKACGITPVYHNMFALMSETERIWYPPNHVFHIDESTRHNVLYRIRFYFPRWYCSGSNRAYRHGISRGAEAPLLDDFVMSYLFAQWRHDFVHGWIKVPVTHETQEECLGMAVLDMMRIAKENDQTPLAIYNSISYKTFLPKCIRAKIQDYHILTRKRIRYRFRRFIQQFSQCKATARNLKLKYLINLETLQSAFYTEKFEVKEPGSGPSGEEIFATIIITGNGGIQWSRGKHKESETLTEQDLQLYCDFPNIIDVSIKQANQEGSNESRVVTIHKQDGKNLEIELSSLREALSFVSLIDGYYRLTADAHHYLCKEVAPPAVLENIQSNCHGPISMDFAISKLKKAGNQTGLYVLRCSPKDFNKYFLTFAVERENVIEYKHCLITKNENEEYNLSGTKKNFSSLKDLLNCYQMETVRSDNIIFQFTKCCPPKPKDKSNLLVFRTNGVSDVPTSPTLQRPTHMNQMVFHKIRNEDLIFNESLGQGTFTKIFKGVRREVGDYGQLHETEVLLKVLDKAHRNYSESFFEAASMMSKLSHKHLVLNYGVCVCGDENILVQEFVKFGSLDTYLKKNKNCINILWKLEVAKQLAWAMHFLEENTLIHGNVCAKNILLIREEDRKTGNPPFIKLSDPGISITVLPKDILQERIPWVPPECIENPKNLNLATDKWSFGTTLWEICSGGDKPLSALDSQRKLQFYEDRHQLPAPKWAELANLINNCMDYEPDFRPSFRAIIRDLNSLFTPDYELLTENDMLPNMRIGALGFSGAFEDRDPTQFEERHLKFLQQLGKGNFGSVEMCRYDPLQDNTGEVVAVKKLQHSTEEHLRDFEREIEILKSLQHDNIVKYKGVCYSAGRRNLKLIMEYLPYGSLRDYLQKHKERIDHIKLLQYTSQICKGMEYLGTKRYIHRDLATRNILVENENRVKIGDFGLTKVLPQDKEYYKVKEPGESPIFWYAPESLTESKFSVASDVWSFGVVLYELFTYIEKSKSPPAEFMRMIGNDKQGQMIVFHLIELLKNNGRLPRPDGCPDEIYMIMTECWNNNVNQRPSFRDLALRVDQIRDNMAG
Serine/threonine-protein kinase Nek1 (Homo sapiens), sequence (Q96PY6 whole entry, the tested form may be a part): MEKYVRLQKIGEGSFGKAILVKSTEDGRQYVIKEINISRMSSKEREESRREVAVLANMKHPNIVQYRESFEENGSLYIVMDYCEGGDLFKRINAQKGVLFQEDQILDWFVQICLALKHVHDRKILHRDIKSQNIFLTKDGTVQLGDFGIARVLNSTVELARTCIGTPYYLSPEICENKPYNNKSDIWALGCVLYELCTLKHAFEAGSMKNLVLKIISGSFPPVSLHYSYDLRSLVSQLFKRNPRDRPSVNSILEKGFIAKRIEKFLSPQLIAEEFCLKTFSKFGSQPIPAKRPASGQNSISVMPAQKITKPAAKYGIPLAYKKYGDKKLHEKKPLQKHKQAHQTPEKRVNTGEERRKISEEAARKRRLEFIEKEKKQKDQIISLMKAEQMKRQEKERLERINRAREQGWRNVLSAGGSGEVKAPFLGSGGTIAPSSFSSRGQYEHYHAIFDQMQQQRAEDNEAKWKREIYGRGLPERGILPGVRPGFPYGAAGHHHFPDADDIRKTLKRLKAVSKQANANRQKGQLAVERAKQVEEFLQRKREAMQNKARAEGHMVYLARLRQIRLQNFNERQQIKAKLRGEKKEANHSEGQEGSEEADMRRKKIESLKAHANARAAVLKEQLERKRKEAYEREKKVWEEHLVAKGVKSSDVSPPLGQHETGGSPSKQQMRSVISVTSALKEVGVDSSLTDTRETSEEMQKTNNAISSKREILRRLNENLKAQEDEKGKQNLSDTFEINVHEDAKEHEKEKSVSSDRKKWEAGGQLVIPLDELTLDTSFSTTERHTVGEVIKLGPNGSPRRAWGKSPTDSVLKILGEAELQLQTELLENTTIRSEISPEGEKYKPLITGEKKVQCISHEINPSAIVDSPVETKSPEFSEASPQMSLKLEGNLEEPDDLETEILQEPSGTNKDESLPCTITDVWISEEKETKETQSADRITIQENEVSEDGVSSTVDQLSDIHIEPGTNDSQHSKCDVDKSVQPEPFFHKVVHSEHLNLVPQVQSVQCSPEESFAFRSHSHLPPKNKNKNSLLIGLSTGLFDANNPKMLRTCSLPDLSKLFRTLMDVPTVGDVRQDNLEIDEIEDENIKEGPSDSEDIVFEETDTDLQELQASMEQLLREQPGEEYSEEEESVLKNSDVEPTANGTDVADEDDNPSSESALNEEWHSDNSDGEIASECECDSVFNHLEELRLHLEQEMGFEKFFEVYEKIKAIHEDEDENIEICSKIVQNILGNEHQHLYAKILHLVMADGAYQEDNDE
SRSF protein kinase 1 (Homo sapiens), sequence (Q96SB4 whole entry): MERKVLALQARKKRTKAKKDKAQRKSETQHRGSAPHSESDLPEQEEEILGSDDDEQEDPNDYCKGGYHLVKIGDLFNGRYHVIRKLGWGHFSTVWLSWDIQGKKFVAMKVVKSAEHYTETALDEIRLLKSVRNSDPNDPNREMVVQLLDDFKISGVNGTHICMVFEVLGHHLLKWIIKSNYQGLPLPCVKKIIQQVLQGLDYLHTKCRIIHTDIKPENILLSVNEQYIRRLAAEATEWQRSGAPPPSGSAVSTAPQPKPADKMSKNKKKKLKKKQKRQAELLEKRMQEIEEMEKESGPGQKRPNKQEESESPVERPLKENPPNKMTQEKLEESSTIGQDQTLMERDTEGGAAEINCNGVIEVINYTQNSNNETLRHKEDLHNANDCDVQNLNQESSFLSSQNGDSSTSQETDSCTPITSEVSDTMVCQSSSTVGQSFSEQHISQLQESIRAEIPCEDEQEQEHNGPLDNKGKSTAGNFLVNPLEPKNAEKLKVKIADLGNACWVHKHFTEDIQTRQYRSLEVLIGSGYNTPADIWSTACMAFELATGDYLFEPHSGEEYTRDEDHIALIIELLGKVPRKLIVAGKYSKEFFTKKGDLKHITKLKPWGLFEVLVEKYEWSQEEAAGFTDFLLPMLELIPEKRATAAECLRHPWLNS

C[C@@H](c1ccccc1)n1nnc2cnc3ccc(-c4cnc5[nH]ccc5c4)cc3c21
Activity [1]: 43% | Activity [2]: 101% | Activity [3]: 3% | Activity [4]: 64% | Activity [5]: 65% | Activity [6]: 44% | Activity [7]: 62% | Activity [8]: 70% | Activity [9]: 84% | Activity [10]: 82% | Activity [11]: 116% | Activity [12]: 57% | Activity [13]: 69% | Activity [14]: 30% | Activity [15]: 8% | Activity [16]: 100% | Activity [17]: 123% | Activity [18]: 56% | Activity [19]: 62% | Activity [20]: 23% | Activity [21]: 70%
